Key:
[1] = Exudation of active agents from gel specimens to filter paper discs, quantified by UV, MS, GC and/or HPLC after extraction; format: physicochemical; conditions: for Active Agent Transferred from Gel to Filters: 37° C., 0.40 psi; for Total Active Agent Exuded from Gel: cumulative
Method: Sample filter paper discs were placed in contact with gel specimens of same diameter under constant low pressure (0.40 psi. (2.8 Mpa)) at 37° C. Multiple time-controlled exposures of the filter paper to the gel were preformed in succession to same side of gel. Quantification of active agent transferred to the filter paper discs was determined by UV, MS, GC and or HPLC analysis after extraction of active agent from the filter paper. Exudation rates was expressed as μg/unit time per unit surface area.
This compound was then divided into three aliquots' of approximately 10 grams each and poured into a 2.625″ diameter aluminum petri dish and allowed to cool to create individual gel samle discs. Subsequently, absorbent cellulose filter blotter paper was die cut to enough 2.625″ diameter discs to be employed as a wicking media for repeated exposure in direct contact with the gel compound under specific conditions as follows.
(§1) Exposure Conditions: 37-40 deg. C., Sample filter paper discs in contact with gel specimens of same diameter were stacked in […]. aluminum petri dishes, gel specimen diameter 2.625″×0.125″ thick, filter paper disc diameter 2.625″ with another petri dish and a 1 kg dead weight on top of stack. Pressure calculated at ˜0.407 psi. (2.8 Mpa) constant. Two replicates per test condition. Repeat exposures at 3 hours then repeat three exposures of 18 hours each, changing discs but keeping same gel specimen and same side of each gel specimen in contact with each successive filter paper disc sample.
The filter paper disc specimens aa through kk were then sent to an analytical laboratory for HPLC and GC analysis along with a small sample of each individual raw ingredient so that the HPLC and GC equipment could be calibrated for the protocol being employed by the lab. This calibration allowed for determining the maximum recoverable (measurable) amount of each ingredient that could be measured using these techniques and would later be used to correct the data. The analytical laboratory then detected and measured the amount of each of the added active agents that was flushed out of the filter paper discs using wet chemistry techniques known to those skilled in the art.
The analytical data was interpreted, and the amounts of each ingredient which was exuded into each filter paper blotter disc specimen, and subsequently extracted using wet chemistry, were then entered into a data analysis spreadsheet and adjusted based on the Analytical Recovery Rate to determine actual concentration of each ingredient extracted.

[2] = Total weight of exudate (oil) absorbed by filter paper blotter discs and theoretical amount of each ingredient exuded; format: physicochemical
Method: as §1
Data was calculated to determine the total weight of exudate absorbed by each individual sample filter paper blotter disc test specimen. Calculations were then performed based upon the ratios of ingredients in the gel disc formula to determine the theoretical amount of each ingredient that could have been exuded from the oil if the oil contained the same ratio of ingredients as contained in the control oil sample and in the gel.

[3] = Gel Specimen Number 1, 1 h filter exposure, time 0-1 h
[4] = Gel Specimen Number 1, 3 h filter exposure, time 1-4 h
[5] = Gel Specimen Number 1, 18 h filter exposure, time 4-22 h
[6] = Gel Specimen Number 1, 18 h filter exposure, time 22-40 h
[7] = Gel Specimen Number 1, 18 h filter exposure, time 40-58 h
[8] = Gel Specimen Number 1, Time 1 h
[9] = Gel Specimen Number 1, Time 4 h
[10] = Gel Specimen Number 1, Time 22 h
[11] = Gel Specimen Number 1, Time 40 h
[12] = Gel Specimen Number 1, Time 58 h
[13] = Gel Specimen Number 2, 1 h filter exposure, time 0-1 h
[14] = Gel Specimen Number 2, 3 h filter exposure, time 1-4 h
[15] = Gel Specimen Number 2, 18 h filter exposure, time 4-22 h
[16] = Gel Specimen Number 2, 18 h filter exposure, time 22-40 h
[17] = Gel Specimen Number 2, 18 h filter exposure, time 40-58 h
[18] = Gel Specimen Number 2, Time 1 h
[19] = Gel Specimen Number 2, Time 4 h
[20] = Gel Specimen Number 2, Time 22 h
[21] = Gel Specimen Number 2, Time 40 h
[22] = Gel Specimen Number 2, Time 58 h
[23] = Specimen aa, Hours 1, Cummulative Hours 1
[24] = Specimen bb, Hours 1, Cummulative Hours 1
[25] = Specimen cc, Hours 3, Cummulative Hours 4
[26] = Specimen dd, Hours 3, Cummulative Hours 4
[27] = Specimen ee, Hours 18, Cummulative Hours 22
[28] = Specimen ff, Hours 18, Cummulative Hours 22
[29] = Specimen gg, Hours 18, Cummulative Hours 40
[30] = Specimen hh, Hours 18, Cummulative Hours 40
[31] = Specimen ii, Hours 18, Cummulative Hours 58
[32] = Specimen kk, Hours 18, Cummulative Hours 58

Active Agent Transferred from Gel to Filters [1, 3]	Active Agent Transferred from Gel to Filters [1, 4]	Active Agent Transferred from Gel to Filters [1, 5]	Active Agent Transferred from Gel to Filters [1, 6]	Active Agent Transferred from Gel to Filters [1, 7]	Total Active Agent Exuded from Gel [1, 8]	Total Active Agent Exuded from Gel [1, 9]	Total Active Agent Exuded from Gel [1, 10]	Total Active Agent Exuded from Gel [1, 11]	Total Active Agent Exuded from Gel [1, 12]	Active Agent Transferred from Gel to Filters [1, 13]	Active Agent Transferred from Gel to Filters [1, 14]	Active Agent Transferred from Gel to Filters [1, 15]	Active Agent Transferred from Gel to Filters [1, 16]	Active Agent Transferred from Gel to Filters [1, 17]	Total Active Agent Exuded from Gel [1, 18]	Total Active Agent Exuded from Gel [1, 19]	Total Active Agent Exuded from Gel [1, 20]	Total Active Agent Exuded from Gel [1, 21]	Total Active Agent Exuded from Gel [1, 22]	Molecule	other results
1005 μg per filter	1694 μg per filter	4812 μg per filter	5165 μg per filter	3882 μg per filter	1005 µg	2699 µg	7511 µg	12675 µg	16558 µg	1753 μg per filter	2506 μg per filter	4847 μg per filter	4271 μg per filter	3729 μg per filter	1753 µg	4259 µg	9106 µg	13376 µg	17106 µg	COC(=O)c1ccccc1O [Methyl Salicylate, reference compound]	Quantitative Analysis - Islechem u-gram extraction [1, 23]: 854 u-gram; Quantitative Analysis - Islechem u-gram extraction [1, 24]: 1490 u-gram; Quantitative Analysis - Islechem u-gram extraction [1, 25]: 1440 u-gram; Quantitative Analysis - Islechem u-gram extraction [1, 26]: 2130 u-gram; Quantitative Analysis - Islechem u-gram extraction [1, 27]: 4090 u-gram; Quantitative Analysis - Islechem u-gram extraction [1, 28]: 4120 u-gram; Quantitative Analysis - Islechem u-gram extraction [1, 29]: 4390 u-gram; Quantitative Analysis - Islechem u-gram extraction [1, 30]: 3630 u-gram; Quantitative Analysis - Islechem u-gram extraction [1, 31]: 3300 u-gram; Quantitative Analysis - Islechem u-gram extraction [1, 32]: 3170 u-gram; Estimated grams of ingredient exuded (theoretical amount from ratios of ingredients in the gel disc formula) ([2]; Sample aa, Test Disc 1, Exposed 1 hours): 0.0022 grams; Estimated grams of ingredient exuded (theoretical amount from ratios of ingredients in the gel disc formula) ([2]; Sample bb, Test Disc 1 Replicate, Exposed 1 hours): 0.0031 grams; Estimated grams of ingredient exuded (theoretical amount from ratios of ingredients in the gel disc formula) ([2]; Sample cc, Test Disc 2, Exposed 3 hours): 0.0024 grams; Estimated grams of ingredient exuded (theoretical amount from ratios of ingredients in the gel disc formula) ([2]; Sample dd, Test Disc 2 Replicate, Exposed 3 hours): 0.0035 grams; Estimated grams of ingredient exuded (theoretical amount from ratios of ingredients in the gel disc formula) ([2]; Sample ee, Test Disc 3, Exposed 18 hours): 0.0062 grams; Estimated grams of ingredient exuded (theoretical amount from ratios of ingredients in the gel disc formula) ([2]; Sample ff, Test Disc 3 Replicate, Exposed 18 hours): 0.0062 grams; Estimated grams of ingredient exuded (theoretical amount from ratios of ingredients in the gel disc formula) ([2]; Sample gg, Test Disc 4, Exposed 18 hours): 0.0064 grams; Estimated grams of ingredient exuded (theoretical amount from ratios of ingredients in the gel disc formula) ([2]; Sample hh, Test Disc 4 Replicate, Exposed 18 hours): 0.0057 grams; Estimated grams of ingredient exuded (theoretical amount from ratios of ingredients in the gel disc formula) ([2]; Sample ii, Test Disc 5, Exposed 18 hours): 0.0051 grams; Estimated grams of ingredient exuded (theoretical amount from ratios of ingredients in the gel disc formula) ([2]; Sample kk, Test Disc 5 Replicate, Exposed 18 hours): 0.0051 grams
372 μg per filter	793 μg per filter	4765 μg per filter	6600 μg per filter	4035 μg per filter	372 µg	1165 µg	5929 µg	12529 µg	16565 µg	705 μg per filter	1459 μg per filter	5153 μg per filter	4976 μg per filter	3941 μg per filter	705 µg	2164 µg	7316 µg	12293 µg	16234 µg	O=C(O)c1ccccc1O [Salicylic Acid, reference compound]	–
18 μg per filter	18 μg per filter	25 μg per filter	29 μg per filter	10 μg per filter	18 µg	35 µg	60 µg	89 µg	99 µg	20 μg per filter	24 μg per filter	22 μg per filter	13 μg per filter	20 μg per filter	20 µg	43 µg	65 µg	78 µg	98 µg	Ceramide III	Quantitative Analysis - Islechem u-gram extraction [1, 23]: 17 u-gram; Quantitative Analysis - Islechem u-gram extraction [1, 24]: 19 u-gram; Quantitative Analysis - Islechem u-gram extraction [1, 25]: 17 u-gram; Quantitative Analysis - Islechem u-gram extraction [1, 26]: 23 u-gram; Quantitative Analysis - Islechem u-gram extraction [1, 27]: 24 u-gram; Quantitative Analysis - Islechem u-gram extraction [1, 28]: 21 u-gram; Quantitative Analysis - Islechem u-gram extraction [1, 29]: 28 u-gram; Quantitative Analysis - Islechem u-gram extraction [1, 30]: 13 u-gram; Quantitative Analysis - Islechem u-gram extraction [1, 31]: 9.6 u-gram; Quantitative Analysis - Islechem u-gram extraction [1, 32]: 19 u-gram

Source: patent publication US20100063008A1, “GELATINOUS ELASTOMER COMPOSITIONS” (Silipos, Inc., priority 2008, published 2010)
